Measured values published in US20170190671A1, “BIS(ARYL)CATECHOL DERIVATIVES AS HERBICIDES” (E I DU PONT DE NEMOURS AND COMPANY, priority 2014, published 2017).

Legend:
Assay type in all cases: in vivo
[1] = system: ragweed (common ragweed, Ambrosia elatior); experiment: Test A postemergence; settings: Ambrosia artemisiifolia, post-emergence, 240 h, 0 to 100 scale, read-out: Plant response rating, Ragweed
Method in brief: (§1)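 Compounds in non-phytotoxic solvent with surfactant applied as soil spray preemergence, or postemergence to plants 2-10 cm at one- to two-leaf stage, in loam/sand. After approximately 10 days in greenhouse, injury rated visually versus untreated controls, 0 (no effect) to 100 (complete control).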

[2] = system: Italian ryegrass (Lolium multiflorum); experiment: Test A postemergence; settings: Lolium multiflorum, post-emergence, 240 h, 0 to 100 scale, read-out: Plant response rating, Ryegrass, Italian
Method in brief: as §1

[3] = system: giant foxtail (Setaria faberii); experiment: Test A postemergence; settings: Setaria faberi, post-emergence, 240 h, 0 to 100 scale, read-out: Plant response rating, Foxtail, Giant; for pest or weed control at 125 g/ha: 125 g ai/ha
Method in brief: as §1

[4] = system: barnyardgrass (Echinochloa crus-galli); experiment: Test A postemergence; settings: Echinochloa crus-galli, post-emergence, 240 h, 0 to 100 scale, read-out: Plant response rating, Barnyardgrass; for pest or weed control at 125 g/ha: 125 g ai/ha
Method in brief: as §1

kochia (Kochia scoparia) [5] = experiment: Test A postemergence; settings: Bassia scoparia, post-emergence, 240 h, 0 to 100 scale, read-out: Plant response rating, Kochia
Method in brief: as §1

corn (Zea mays) = experiment: Test A postemergence; settings: Zea mays, post-emergence, 240 h, 0 to 100 scale; for Corn plant response rating (crop injury, 0 = no effect, 100 = complete kill) at 125 g/ha: 125 g ai/ha
Method in brief: as §1

[6] = system: wheat (Triticum aestivum); experiment: Test A postemergence; settings: Triticum aestivum, post-emergence, 240 h, 0 to 100 scale, read-out: Plant response rating, Wheat; for plant injury at 125 g/ha: 125 g ai/ha
Method in brief: as §1

[7] = system: galium (catchweed bedstraw, Galium aparine); experiment: Test A postemergence; settings: Galium, post-emergence, 240 h, 0 to 100 scale, read-out: Plant response rating, Galium
Method in brief: as §1

[8] = system: blackgrass (Alopecurus myosuroides); experiment: Test A postemergence; settings: Alopecurus myosuroides, post-emergence, 240 h, 0 to 100 scale, read-out: Plant response rating, Blackgrass
Method in brief: as §1

[9] = system: pigweed (Amaranthus retroflexus); experiment: Test A postemergence; settings: Amaranthus retroflexus, post-emergence, 240 h, 0 to 100 scale, read-out: Plant response rating, Pigweed; for pest or weed control at 125 g/ha: 125 g ai/ha
Method in brief: as §1

[10] = system: barnyardgrass (Echinochloa crus-galli); experiment: Test B flooded paddy; settings: Echinochloa crus-galli, 336 h; 250 g ai/ha, Flood, 13 to 15 days, scale 0 (no effect) to 100 (complete control); read-out: Plant response rating, Barnyardgrass
Method in brief: (§2)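 Visual injury ratings against untreated controls, taken 13 to 15 days after compound was added to paddy water standing 3 cm above the soil.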

rice (Oryza sativa) = experiment: Test B flooded paddy; settings: Oryza sativa, 336 h; 250 g ai/ha, Flood, 13 to 15 days, scale 0 (no effect) to 100 (complete control); read-out: Plant response rating, Rice
Method in brief: as §2

[11] = system: ducksalad (Heteranthera limosa); experiment: Test B flooded paddy; settings: Heteranthera limosa, 336 h; 250 g ai/ha, Flood, 13 to 15 days, scale 0 (no effect) to 100 (complete control); read-out: Plant response rating, Ducksalad
Method in brief: as §2

[12] = system: sedge, umbrella (small-flower umbrella sedge, Cyperus difformis); experiment: Test B flooded paddy; settings: Cyperus difformis, 336 h; 250 g ai/ha, Flood, 13 to 15 days, scale 0 (no effect) to 100 (complete control); read-out: Plant response rating, Sedge, Umbrella
Method in brief: as §2

[13] = system: ragweed (common ragweed, Ambrosia elatior); experiment: Test A preemergence; settings: Ambrosia artemisiifolia, pre-emergence, 240 h
Method in brief: as §1

[14] = system: Italian ryegrass (Lolium multiflorum); experiment: Test A preemergence; settings: Lolium multiflorum, pre-emergence, 240 h
Method in brief: as §1

[15] = system: giant foxtail (Setaria faberii); experiment: Test A preemergence; settings: Setaria faberi, pre-emergence, 240 h; for pest or weed control at 125 g/ha: 125 g ai/ha
Method in brief: as §1

[16] = system: barnyardgrass (Echinochloa crus-galli); experiment: Test A preemergence; settings: Echinochloa crus-galli, pre-emergence, 240 h; for pest or weed control at 125 g/ha: 125 g ai/ha
Method in brief: as §1

kochia (Kochia scoparia) [17] = experiment: Test A preemergence; settings: Bassia scoparia, pre-emergence, 240 h
Method in brief: as §1

[18] = system: pigweed (Amaranthus retroflexus); experiment: Test A preemergence; settings: Amaranthus retroflexus, pre-emergence, 240 h; for pest or weed control at 125 g/ha: 125 g ai/ha
Method in brief: as §1

[19] = 0 to 100 scale, read-out: Plant response rating, Barnyardgrass

N#Cc1cccc(Oc2ncc(Br)cn2)c1Oc1ncc(Cl)cn1 [Compound 5, 3-[(5-bromo-2-pyrimidinyl)oxy]-2-[(5-chloro-2-pyrimidinyl)oxy]benzonitrile] was tested, and the pest or weed control at 31 g/ha ([1]; 31 g ai/ha) was 20%, the pest or weed control at 125 g/ha ([1]; 125 g ai/ha) was 40% and the pest or weed control at 31 g/ha ([2]; 31 g ai/ha) was 20%. It also gave a pest or weed control at 125 g/ha ([2]; 125 g ai/ha) of 50%, a pest or weed control at 31 g/ha ([3]; 31 g ai/ha) of 10% and a pest or weed control at 125 g/ha [3] of 90%. For the same molecule, the pest or weed control at 31 g/ha ([4]; 31 g ai/ha) was 20%, the pest or weed control at 125 g/ha [4] was 90% and the pest or weed control at 31 g/ha (kochia (Kochia scoparia) [5]; 31 g ai/ha) was 70%. It also gave a pest or weed control at 125 g/ha (kochia (Kochia scoparia) [5]; 125 g ai/ha) of 100%, a Corn plant response rating (crop injury, 0 = no effect, 100 = complete kill) at 31 g/ha (corn (Zea mays); 31 g ai/ha) of 20% and a Corn plant response rating (crop injury, 0 = no effect, 100 = complete kill) at 125 g/ha (corn (Zea mays)) of 80%. It also gave a plant injury at 31 g/ha ([6]; 31 g ai/ha) of 20%, a plant injury at 125 g/ha [6] of 40% and a pest or weed control at 31 g/ha ([7]; 31 g ai/ha) of 50%. It also gave a pest or weed control at 125 g/ha ([7]; 125 g ai/ha) of 90%, a pest or weed control at 31 g/ha ([8]; 31 g ai/ha) of 40% and a pest or weed control at 125 g/ha ([8]; 125 g ai/ha) of 90%. For the same molecule, the pest or weed control at 31 g/ha ([9]; 31 g ai/ha) was 70%, the pest or weed control at 125 g/ha [9] was 100% and the pest or weed control at 250 g/ha [10] was 35%. The plant injury at 250 g/ha (rice (Oryza sativa)) was 0%, the pest or weed control at 250 g/ha [11] was 100% and the pest or weed control at 250 g/ha [12] was 75%. For the same molecule, the pest or weed control at 31 g/ha ([13]; 31 g ai/ha, 0 to 100 scale (0 no effect, 100 complete control), read-out: Ragweed plant response rating) was 0%, the pest or weed control at 125 g/ha ([13]; 125 g ai/ha, 0 to 100 scale, read-out: Plant response rating, Ragweed) was 20% and the pest or weed control at 31 g/ha ([14]; 31 g ai/ha, 0 to 100 scale (0 no effect, 100 complete control), read-out: Ryegrass, Italian plant response rating) was 0%. For the same molecule, the pest or weed control at 125 g/ha ([14]; 125 g ai/ha, 0 to 100 scale, read-out: Plant response rating, Ryegrass, Italian) was 60%, the pest or weed control at 31 g/ha ([15]; 31 g ai/ha, 0 to 100 scale (0 no effect, 100 complete control), read-out: Foxtail, Giant plant response rating) was 90% and the pest or weed control at 125 g/ha ([15]; 0 to 100 scale, read-out: Plant response rating, Foxtail, Giant) was 100%. It also gave a pest or weed control at 31 g/ha ([16]; 31 g ai/ha, 0 to 100 scale (0 no effect, 100 complete control), read-out: Barnyardgrass plant response rating) of 20%, a pest or weed control at 125 g/ha [16, 19] of 80% and a pest or weed control at 31 g/ha (kochia (Kochia scoparia) [17]; 31 g ai/ha, 0 to 100 scale (0 no effect, 100 complete control), read-out: Kochia plant response rating) of 100%. For the same molecule, the pest or weed control at 125 g/ha (kochia (Kochia scoparia) [17]; 125 g ai/ha, 0 to 100 scale, read-out: Plant response rating, Kochia) was 100%, the pest or weed control at 31 g/ha ([18]; 31 g ai/ha, 0 to 100 scale (0 no effect, 100 complete control), read-out: Pigweed plant response rating) was 100% and the pest or weed control at 125 g/ha ([18]; 0 to 100 scale, read-out: Plant response rating, Pigweed) was 100%.
Clc1cnc(Oc2cccc(Br)c2Oc2ncc(Cl)cn2)nc1 [Compound 19, 2,2′-[[3-bromo-1,2-phenylene]bis(oxy)]bis[5-chloropyrimidine]] was tested, and the pest or weed control at 125 g/ha [3] was 80%, the pest or weed control at 500 g/ha ([3]; 500 g ai/ha) was 90% and the pest or weed control at 125 g/ha [4] was 70%. It also gave a pest or weed control at 500 g/ha ([4]; 500 g ai/ha) of 100%, a Corn plant response rating (crop injury, 0 = no effect, 100 = complete kill) at 125 g/ha (corn (Zea mays)) of 50% and a Corn plant response rating (crop injury, 0 = no effect, 100 = complete kill) at 500 g/ha (corn (Zea mays); 500 g ai/ha) of 60%. For the same molecule, the plant injury at 125 g/ha [6] was 50%, the plant injury at 500 g/ha ([6]; 500 g ai/ha) was 60% and the pest or weed control at 125 g/ha [9] was 100%. The pest or weed control at 500 g/ha ([9]; 500 g ai/ha) was 100%, the pest or weed control at 250 g/ha [10] was 15% and the plant injury at 250 g/ha (rice (Oryza sativa)) was 25%. It also gave a pest or weed control at 250 g/ha [11] of 95%, a pest or weed control at 250 g/ha [12] of 85% and a pest or weed control at 125 g/ha ([15]; 0 to 100 scale (0 no effect, 100 complete control), read-out: Foxtail, Giant plant response rating) of 100%. The pest or weed control at 500 g/ha ([15]; 500 g ai/ha, 0 to 100 scale, read-out: Plant response rating, Foxtail, Giant) was 100%, the pest or weed control at 125 g/ha [16, 19] was 80% and the pest or weed control at 500 g/ha ([16]; 500 g ai/ha, 0 to 100 scale, read-out: Plant response rating, Barnyardgrass) was 90%. It also gave a pest or weed control at 125 g/ha ([18]; 0 to 100 scale (0 no effect, 100 complete control), read-out: Pigweed plant response rating) of 100% and a pest or weed control at 500 g/ha ([18]; 500 g ai/ha, 0 to 100 scale, read-out: Plant response rating, Pigweed) of 100%.
